Data as given in patent publication US20240343694A1, “PYRIMIDINE DERIVATIVE, METHOD FOR PREPARING SAME, AND PHARMACEUTICAL COMPOSITION FOR PREVENTING OR TREATING CANCER COMPRISING SAME AS ACTIVE INGREDIENT” (KOREA RESERARCH INSTITUTE OF CHEMICAL TECHNOLOGY, priority 2021, published 2024).

Key:
[1] = biological target: EGFR A763_Y764insFHEA (Homo sapiens (Human), UniProt P00533, INS763FHEA); test: HTRF inhibitory activity against EGFR mutant enzyme (EGFR A763_Y764insFHEA); format: biochemical; settings: recombinant enzyme, 37° C. for 2 hours
Chain of EGFR A763_Y764insFHEA (P00533 other isoform, or with tags, fused parts or gaps del 1-694/ins FHEA behind 763 limits assumed): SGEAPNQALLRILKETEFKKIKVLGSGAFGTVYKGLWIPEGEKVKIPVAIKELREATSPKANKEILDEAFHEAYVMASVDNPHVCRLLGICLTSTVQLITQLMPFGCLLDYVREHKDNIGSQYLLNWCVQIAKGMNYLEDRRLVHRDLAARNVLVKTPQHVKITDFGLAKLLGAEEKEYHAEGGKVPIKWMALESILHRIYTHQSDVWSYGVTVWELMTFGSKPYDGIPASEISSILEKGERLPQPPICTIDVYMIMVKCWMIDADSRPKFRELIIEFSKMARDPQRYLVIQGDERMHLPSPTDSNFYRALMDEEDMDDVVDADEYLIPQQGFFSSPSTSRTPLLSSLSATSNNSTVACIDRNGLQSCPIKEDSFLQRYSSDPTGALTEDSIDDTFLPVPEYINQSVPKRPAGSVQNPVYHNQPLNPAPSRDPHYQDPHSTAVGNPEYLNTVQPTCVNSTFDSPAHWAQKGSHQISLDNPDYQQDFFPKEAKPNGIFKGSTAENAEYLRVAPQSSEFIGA
Procedure: (§1) The activity of the compounds of the present invention against EGFR mutant enzymes was measured using the HTRF system purchased from Cisbio as follows. For an EGFR mutant enzyme, the EGFR del19 enzyme was a recombinant protein purchased from Carna Biosciences, and the EGFR A763_Y764insFHEA enzyme was a recombinant protein purchased from SignalChem, respectively.
(§2) The composition of the assay buffer used for activity measurement was 50 mM tris-HCl pH 7.5, 100 mM NaCl, 7.5 mM MgCl2, 3 mM KCl, 0.01% tween 20, 0.1% BSA, and 1 mM DTT. An enzymatic reaction was performed using a peptide substrate labeled with ATP at a concentration of […] and biotin at a concentration of […]. The analysis of the inhibitory effect of the compounds on EGFR activity was performed according to the following method. • Component 1:4 μL of EGFR mutant enzyme • Component 2:2 μL of compound solution • Component 3:4 μL of ATP and a biotin labeled peptide
(§3) The enzyme reaction begins by first mixing component 1 and component 2 and then adding component 3 thereto. After the reaction at 37° C. for 2 hours, […] of a measurement solution consisting of streptavidin-XL665 and a europium-labeled anti-phosphotyrosine antibody purchased from Cisbio was added to the enzyme reaction solution and reacted at room temperature for 1 hour. Finally, the ratio of fluorescence values at 615 nm and 665 nm was measured using Perkin-Elmer's Envision instrument to calculate enzyme activity and confirm the inhibitory ability of the compounds. The measured values at 7 compound concentrations were analyzed using the Prism program (version 5.01, Graphpad Software, Inc.), and the IC50 (μM) values, which are measures of the compounds' inhibitory activity, were calculated.

[2] = system: Ba/F3 HER2 A775_G776insYVMA; test: Growth inhibition of Ba/F3 HER2 mutant cells (CellTiter-Glo); format: cell-based; settings: Mus musculus, BaF3, 72 hours
Procedure: The activity of the compounds of the present invention against Ba/F3 HER2 A775_G776insYVMA and Ba/F3 HER2 G776delinsVC mutant cell lines was measured using the CellTiter-Glo system purchased from Promega as follows. CellTiter-Glo assay is a method to measure cell viability by monitoring ATP present in cells. Ba/F3 HER2 A775_G776insYVMA and Ba/F3 HER2 G776delinsVC mutant cell lines were purchased from Crown Biosciences. Ba/F3 HER2 A775_G776insYVMA and Ba/F3 HER2 G776delinsVC mutant cell lines were cultured in RPMI containing 10% FBS and 1% penicillin-streptomycin with 1 μg/mL of puromycin in a CO2 incubator at 37° C.
The analysis of the ability of the compounds to inhibit the growth of HER2 mutant cells was performed according to the following method. 1,000 cells/100 μL were seeded in a 96-well cell culture plate, and 24 hours thereafter, the compounds represented by Formula 1 were treated with 0 μM, 0.01 μM, 0.03 μM, 0.1 μM, 0.3 μM, 1 μM, 3 μM, and 10 μM. After reacting for 72 hours, the plate treated with the compounds were left at room temperature for 30 minutes, 100 μL of a reagent was added thereto, and then shaken at room temperature for 10 minutes. Finally, using equipment, the ratio of […] was measured to confirm the cell growth inhibition ability of the compounds. The measured values at 8 compound concentrations were analyzed using the Prism program (version 5.01, Graphpad Software, Inc.), and the IC50 (μM) values, which are measures of the compounds' inhibitory ability, were calculated.

[3] = biological target: HER2 A775_G776insYVMA (Homo sapiens (Human), UniProt P04626, INS775YVMA); test: HTRF inhibitory activity against HER2 mutant enzyme; format: biochemical; settings: recombinant enzyme, 37° C. for 2 hours
Chain of HER2 A775_G776insYVMA (P04626 other isoform, or with tags, fused parts or gaps del 1-675/ins YVMA behind 775 limits assumed): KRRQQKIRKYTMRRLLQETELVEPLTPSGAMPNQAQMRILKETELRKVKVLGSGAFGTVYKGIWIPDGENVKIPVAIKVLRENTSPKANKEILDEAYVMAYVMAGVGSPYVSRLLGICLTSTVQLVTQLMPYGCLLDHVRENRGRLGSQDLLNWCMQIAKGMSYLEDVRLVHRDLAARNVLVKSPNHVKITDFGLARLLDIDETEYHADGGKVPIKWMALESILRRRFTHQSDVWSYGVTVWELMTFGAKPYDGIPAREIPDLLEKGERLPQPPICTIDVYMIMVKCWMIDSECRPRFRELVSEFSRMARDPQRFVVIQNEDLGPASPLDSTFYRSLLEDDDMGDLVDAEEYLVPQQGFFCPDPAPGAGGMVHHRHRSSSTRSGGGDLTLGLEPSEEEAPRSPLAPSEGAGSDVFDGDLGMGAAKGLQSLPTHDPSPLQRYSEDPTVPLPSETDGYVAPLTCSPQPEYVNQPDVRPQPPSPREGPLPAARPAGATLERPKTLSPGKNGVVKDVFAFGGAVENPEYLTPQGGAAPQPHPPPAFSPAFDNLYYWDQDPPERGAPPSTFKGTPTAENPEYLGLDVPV
Procedure: The activity of the compounds of the present invention against HER mutant enzymes was measured using the HTRF system purchased by Cisbio as follows. As a HER2 mutant enzyme, the HER2 A775_G776insYVMA mutant enzyme was used by purchasing a recombinant protein provided by Carna Biosciences.
as §2, with “mM DTT. In addition thereto, the enzymatic reaction” for “mM DTT. An enzymatic reaction”, “of the activity inhibitory effect” for “of the inhibitory effect”, “compounds on HER2 A775_G776insYVMA mutation was performed” for “compounds on EGFR activity was performed”, “μL of HER2 A775_G776insYVMA mutant enzyme” for “μL of EGFR mutant enzyme”
as §3, with “Finally, the ratio of fluorescence values at 615 nm and 665 nm was measured using Perkin-Elmer's Envision instrument to calculate enzyme activity and confirm the inhibitory ability of the compounds.” left out, “ability,” for “activity,”

[4] = biological target: EGFR del19 (Homo sapiens (Human), UniProt P00533, DEL746-750); test: HTRF inhibitory activity against EGFR mutant enzyme (EGFR del19); format: biochemical; settings: recombinant enzyme, 37° C. for 2 hours
Chain of EGFR del19 (P00533 other isoform, or with tags, fused parts or gaps del 1-668/del 746-750 limits assumed): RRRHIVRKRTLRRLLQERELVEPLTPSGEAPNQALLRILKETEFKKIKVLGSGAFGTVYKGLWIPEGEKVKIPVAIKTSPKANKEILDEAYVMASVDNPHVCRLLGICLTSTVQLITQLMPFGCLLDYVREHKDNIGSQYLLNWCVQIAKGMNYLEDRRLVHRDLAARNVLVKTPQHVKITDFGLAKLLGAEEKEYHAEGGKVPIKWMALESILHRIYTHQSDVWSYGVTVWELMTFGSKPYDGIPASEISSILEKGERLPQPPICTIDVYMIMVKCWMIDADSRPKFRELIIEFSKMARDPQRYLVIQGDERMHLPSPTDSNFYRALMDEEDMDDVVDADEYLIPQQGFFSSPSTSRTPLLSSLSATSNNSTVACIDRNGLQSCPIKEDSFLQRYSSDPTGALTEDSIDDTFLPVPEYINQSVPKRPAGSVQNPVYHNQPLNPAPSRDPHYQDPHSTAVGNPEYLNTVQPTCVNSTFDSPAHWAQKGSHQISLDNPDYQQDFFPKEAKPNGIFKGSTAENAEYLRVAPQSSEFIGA
Procedure: as §1, §2, §3

Row | Compound | IC50 [1] | IC50 [2] | IC50 [3] | IC50 [4]
1 | C=CC(=O)Nc1cc(Nc2ncc(Cl)c(Nc3ccccc3NS(=O)(=O)CCC)n2)c(OC)cc1N(C)CCN(C)C [Example 1, N-(5-((5-chloro-4-((2-(propylsulfonamido)phenyl)amino)pyrimidin-2-yl)amino)-2-((2-(dimethylamino)ethyl)(methyl)amino)-4-methoxyphenyl)acrylamide] | 4 nM | 30 to 50 nM | 140 nM | < 1 nM
2 | C=CC(=O)Nc1cc(Nc2ncc(Cl)c(Nc3ccccc3NS(=O)(=O)c3ccccc3)n2)c(OC)cc1N(C)CCN(C)C [Example 2, N-(5-((5-chloro-4-((2-(phenylsulfonamido)phenyl)amino)pyrimidin-2-yl)amino)-2-((2-(dimethylamino)ethyl)(methyl)amino)-4-methoxyphenyl)acrylamide] | 3 nM | 30 to 50 nM | 310 nM | < 1 nM
3 | C=CC(=O)Nc1cc(Nc2ncc(Cl)c(Nc3ccccc3NS(=O)(=O)c3ccc(C)cc3)n2)c(OC)cc1N(C)CCN(C)C [Example 3, N-(5-((5-chloro-4-((2-((4-methylphenyl)sulfonamido)phenyl)amino)pyrimidin-2-yl)amino)-2-((2-(dimethylamino)ethyl)(methyl)amino)-4-methoxyphenyl)acrylamide] | 2 nM | 30 to 50 nM | 450 nM | < 1 nM
4 | C=CC(=O)Nc1cc(Nc2ncc(Cl)c(Nc3ccccc3NS(=O)(=O)C(C)C)n2)c(OC)cc1N(C)CCN(C)C [Example 5, N-(5-((5-chloro-4-((2-((1-methylethyl)sulfonamido)phenyl)amino)pyrimidin-2-yl)amino)-2-((2-(dimethylamino)ethyl)(methyl)amino)-4-methoxyphenyl)acrylamide] | < 1 nM | 30 to 50 nM | 34 nM | < 1 nM
5 | C=CC(=O)Nc1cc(Nc2nccc(Nc3ccccc3NS(=O)(=O)c3ccccc3)n2)c(OC)cc1N(C)CCN(C)C [Example 6, N-(2-((2-(dimethylamino)ethyl)(methyl)amino)-4-methoxy-5-((4-((2-(phenylsulfonamido)phenyl)amino)pyrimidin-2-yl)amino)phenyl)acrylamide] | 20 nM | 30 to 50 nM | 1200 nM | 7 nM
6 | C=CC(=O)Nc1cc(Nc2nccc(Nc3ccccc3NS(C)(=O)=O)n2)c(OC)cc1N(C)CCN(C)C [Example 7, N-(2-((2-(dimethylamino)ethyl)(methyl)amino)-4-methoxy-5-((4-((2-(methylsulfonamido)phenyl)amino)pyrimidin-2-yl)amino)phenyl)acrylamide] | 5 nM | 30 to 50 nM | 280 nM | < 1 nM
7 | C=CC(=O)Nc1cc(Nc2ncc(Cl)c(Nc3ccccc3NS(C)(=O)=O)n2)c(OC)cc1N(C)CCN1CCCC1 [Example 21, N-(5-((5-chloro-4-((2-(methylsulfonamido)phenyl)amino)pyrimidin-2-yl)amino)-4-methoxy-2-(methyl(2-(pyrrolidin-1-yl)ethyl)amino)phenyl)acrylamide] | 3 nM | 30 to 50 nM | 46 nM | 1 nM
8 | C=CC(=O)Nc1cc(Nc2ncc(Cl)c(Nc3cccc4c3N(S(C)(=O)=O)CC4)n2)c(OC)cc1N(C)CCN1CCN(C)CC1 [Example 73, N-(5-((5-chloro-4-((1-(methylsulfonyl)indolin-7-yl)amino)pyrimidin-2-yl)amino)-4-methoxy-2-(methyl(2-(4-methylpiperazin-1-yl)ethyl)amino)phenyl)acrylamide] | < 1 nM | – | 5 nM | < 1 nM
9 | C=CC(=O)Nc1cc(Nc2ncc(Cl)c(Nc3cccc4c3N(S(=O)(=O)CC)CC4)n2)c(OC)cc1N(C)CCN1CCCC1 [Example 75, N-(5-((5-chloro-4-((1-(ethylsulfonyl)indolin-7-yl)amino)pyrimidin-2-yl)amino)-4-methoxy-2-(methyl(2-(pyrrolidin-1-yl)ethyl)amino)phenyl)acrylamide] | < 1 nM | – | 3 nM | < 1 nM
10 | C=CC(=O)Nc1cc(Nc2ncc(Cl)c(Nc3cccc4c3N(S(C)(=O)=O)CC4)n2)c(OC)cc1OCCN1CCOCC1 [Example 77, N-(5-((5-chloro-4-((1-(methylsulfonyl)indolin-7-yl)amino)pyrimidin-2-yl)amino)-4-methoxy-2-(2-morpholinoethoxy)phenyl)acrylamide] | < 1 nM | – | 2 nM | < 1 nM
11 | C=CC(=O)Nc1cc(Nc2ncc(Cl)c(Nc3cccc4c3N(S(C)(=O)=O)CC4)n2)c(OC)cc1OCCN1CCCCC1 [Example 78, N-(5-((5-chloro-4-((1-(methylsulfonyl)indolin-7-yl)amino)pyrimidin-2-yl)amino)-4-methoxy-2-(2-(piperidin-1-yl)ethoxy)phenyl)acrylamide] | < 1 nM | – | 3 nM | < 1 nM
12 | C=CC(=O)Nc1cc(Nc2ncc(Cl)c(Nc3cccc4c3N(S(=O)(=O)CC)CC4)n2)c(OC)cc1N(C)CCN1CCC1 [Example 81, N-(2-((2-(azetidin-1-yl)ethyl)(methyl)amino)-5-((5-chloro-4-((1-(ethylsulfonyl)indolin-7-yl)amino)pyrimidin-2-yl)amino)-4-methoxyphenyl)acrylamide] | < 1 nM | – | < 1 nM | < 1 nM
